Experimental data as given in the CheMixHub viscosity set.

Experiment: xn = mol fraction of the nth substance listed

C=CCN(CC=C)C(=O)C(Cl)Cl + CC(C)=O
viscosity [mPa·s], 101 kPa
Details | x1 = 0.006314 | x1 = 0.01189 | x1 = 0.01711 | x1 = 0.02832 | x1 = 0.03651 | x1 = 0.04464 | x1 = 0.05006 | x1 = 0.05495
293.15 K | 0.3429 | 0.3501 | 0.3617 | 0.3719 | 0.3878 | 0.3997 | 0.4079 | 0.4157
298.15 K | 0.3335 | 0.3358 | 0.3476 | 0.3589 | 0.3712 | 0.3822 | 0.3905 | 0.3989
303.15 K | 0.3189 | 0.3227 | 0.3309 | 0.3424 | 0.3542 | 0.3646 | 0.3722 | 0.3793
308.15 K | 0.3041 | 0.3086 | 0.3185 | 0.3268 | 0.3372 | 0.3478 | 0.3553 | 0.3628
313.15 K | 0.2944 | 0.296 | 0.3075 | 0.3129 | 0.3247 | 0.3335 | 0.3423 | 0.3443

ClC(Cl)C(Cl)(Cl)Cl + CC(C)=O
298.15 K, 101 kPa
Details | viscosity [mPa·s]
x2 = 0.1476 | 1.93
x2 = 0.3178 | 1.52
x2 = 0.5103 | 1.12
x2 = 0.7037 | 0.695
x2 = 0.9068 | 0.417

CCCCCCCCC + CC(C)CC(C)(C)C
298.15 K, 101 kPa
Details | viscosity [mPa·s]
x2 = 0.07718 | 0.6409
x2 = 0.2128 | 0.6118
x2 = 0.3294 | 0.5969
x2 = 0.4097 | 0.5806
x2 = 0.5252 | 0.5564
x2 = 0.6958 | 0.5351
x2 = 0.7143 | 0.5219
x2 = 0.8186 | 0.5071
x2 = 0.8823 | 0.4985
x2 = 0.9211 | 0.4877
x2 = 0.9661 | 0.4829

C1COCO1 + CC(C)O
303.15 K, 101 kPa
Details | viscosity [mPa·s]
x1 = 0.08269 | 1.212
x1 = 0.1686 | 0.9776
x1 = 0.258 | 0.8386
x1 = 0.351 | 0.7477
x1 = 0.4479 | 0.6645
x1 = 0.5489 | 0.6082
x1 = 0.6543 | 0.6033
x1 = 0.7644 | 0.5856
x1 = 0.8795 | 0.5637

CC(C)OC(C)C + CC(C)O
viscosity [mPa·s], 100 kPa
Details | x1 = 0.0797 | x1 = 0.1607 | x1 = 0.2387 | x1 = 0.3497 | x1 = 0.4359 | x1 = 0.5553 | x1 = 0.6498 | x1 = 0.7351 | x1 = 0.848 | x1 = 0.9369
293.15 K | 1.78 | 1.32 | 1.02 | 0.755 | 0.635 | 0.52 | 0.458 | 0.418 | 0.38 | 0.35
298.15 K | 1.55 | 1.18 | 0.92 | 0.68 | 0.572 | 0.48 | 0.43 | 0.395 | 0.36 | 0.332
303.15 K | 1.39 | 1.05 | 0.84 | 0.63 | 0.53 | 0.45 | 0.404 | 0.375 | 0.344 | 0.318
308.15 K | 1.21 | 0.94 | 0.75 | 0.56 | 0.48 | 0.417 | 0.379 | 0.356 | 0.328 | 0.305
313.15 K | 1.05 | 0.83 | 0.67 | 0.51 | 0.44 | 0.383 | 0.356 | 0.334 | 0.311 | 0.29
318.15 K | 0.93 | 0.74 | 0.6 | 0.465 | 0.4 | 0.354 | 0.331 | 0.313 | 0.293 | 0.276
323.15 K | 0.82 | 0.647 | 0.522 | 0.41 | 0.361 | 0.327 | 0.309 | 0.295 | 0.276 | 0.26

CN(C)P(=O)(N(C)C)N(C)C + CC(C)O
303.15 K, 101.3 kPa
Details | viscosity [mPa·s]
x1 = 0.0867 | 1.855
x1 = 0.1008 | 1.87
x1 = 0.1839 | 1.937
x1 = 0.2608 | 1.991
x1 = 0.3481 | 2.075
x1 = 0.4017 | 2.136
x1 = 0.5056 | 2.279
x1 = 0.6052 | 2.407
x1 = 0.705 | 2.547
x1 = 0.7928 | 2.668
x1 = 0.8899 | 2.791

[Al+3].[Cl-].[Cl-].[Cl-] + CC(N)=O
viscosity [mPa·s], 101 kPa
Details | x1 = 0.5 | x1 = 0.52 | x1 = 0.57 | x1 = 0.6
313 K | 59.32 | 47.47 | 44.48 | 40.23
323 K | 41.01 | 32.24 | 30.87 | 28.7

C1COCO1 + CCC(C)O
viscosity [mPa·s]
Details | 298.15 K | 303.15 K | 313.15 K
101 kPa, x1 = 0.1001 | – | 1.516 | –
101 kPa, x1 = 0.2001 | – | 1.181 | –
101 kPa, x1 = 0.3001 | – | 0.9354 | –
101 kPa, x1 = 0.4001 | – | 0.812 | –
101 kPa, x1 = 0.5001 | – | 0.7072 | –
101 kPa, x1 = 0.6001 | – | 0.6589 | –
101 kPa, x1 = 0.7001 | – | 0.612 | –
101 kPa, x1 = 0.8001 | – | 0.5894 | –
101 kPa, x1 = 0.9001 | – | 0.5588 | –
101.33 kPa, x1 = 0.0987 | 1.997 | – | 1.29
101.33 kPa, x1 = 0.1966 | 1.454 | – | 1.016
101.33 kPa, x1 = 0.2957 | 1.149 | – | 0.8449
101.33 kPa, x1 = 0.3994 | 0.9497 | – | 0.7262
101.33 kPa, x1 = 0.5008 | 0.8242 | – | 0.6486
101.33 kPa, x1 = 0.6023 | 0.7412 | – | 0.593
101.33 kPa, x1 = 0.699 | 0.6698 | – | 0.55
101.33 kPa, x1 = 0.8014 | 0.6265 | – | 0.5218
101.33 kPa, x1 = 0.9023 | 0.5997 | – | 0.5052

CC(C)OC(C)C + CCC(C)O
viscosity [mPa·s], 100 kPa
Details | x1 = 0.0813 | x1 = 0.1604 | x1 = 0.2406 | x1 = 0.341 | x1 = 0.447 | x1 = 0.5582 | x1 = 0.6505 | x1 = 0.7374 | x1 = 0.8465 | x1 = 0.9346
293.15 K | 3 | 2.51 | 2.1 | 1.653 | 1.304 | 0.976 | 0.772 | 0.623 | 0.473 | 0.384
298.15 K | 2.51 | 2.09 | 1.75 | 1.395 | 1.122 | 0.846 | 0.678 | 0.56 | 0.44 | 0.365
303.15 K | 2.11 | 1.742 | 1.453 | 1.16 | 0.95 | 0.75 | 0.619 | 0.522 | 0.414 | 0.344
308.15 K | 1.76 | 1.48 | 1.241 | 1.004 | 0.834 | 0.67 | 0.558 | 0.473 | 0.388 | 0.325
313.15 K | 1.49 | 1.25 | 1.06 | 0.87 | 0.73 | 0.596 | 0.51 | 0.44 | 0.361 | 0.307
318.15 K | 1.28 | 1.074 | 0.92 | 0.769 | 0.65 | 0.535 | 0.46 | 0.4 | 0.333 | 0.29
323.15 K | 1.1 | 0.931 | 0.801 | 0.67 | 0.575 | 0.48 | 0.416 | 0.367 | 0.31 | 0.27

CC(=O)c1ccccc1 + CCCC(C)O
298.15 K, 101 kPa
Details | viscosity [mPa·s]
x1 = 0.2502 | 1.875
x1 = 0.7547 | 1.605

[Al+3].[Cl-].[Cl-].[Cl-] + CCCC(N)=O
viscosity [mPa·s], 101 kPa
Details | x1 = 0.5 | x1 = 0.52 | x1 = 0.57 | x1 = 0.6 | x1 = 0.63
313 K | 28.41 | 23.88 | 23.18 | 24.75 | 27.31
323 K | 20.42 | 17.69 | 17.62 | 17.72 | 19.85

CCCCCCCCC + CCCCCC
298.15 K, 101.33 kPa
Details | viscosity [mPa·s]
x2 = 0.1073 | 0.6111
x2 = 0.21 | 0.5693
x2 = 0.2873 | 0.5367
x2 = 0.4024 | 0.5017
x2 = 0.5044 | 0.4527
x2 = 0.6074 | 0.42
x2 = 0.7035 | 0.3874
x2 = 0.804 | 0.3547
x2 = 0.9035 | 0.3272

CCC(O)CC + CCCCCCC
101 kPa
Details | viscosity [mPa·s]
293.4 K, x1 = 0.201 | 0.531
294 K, x1 = 0.026 | 0.466
294.1 K, x1 = 0.101 | 0.489
295.1 K, x1 = 0.5 | 0.734

CCCCCCCCC + CCCCCCC
298.15 K, 101.33 kPa
Details | viscosity [mPa·s]
x2 = 0.1102 | 0.6128
x2 = 0.2046 | 0.5921
x2 = 0.3052 | 0.562
x2 = 0.407 | 0.5372
x2 = 0.5092 | 0.5104
x2 = 0.6073 | 0.4838
x2 = 0.7071 | 0.4588
x2 = 0.8027 | 0.4312
x2 = 0.8996 | 0.4081

CCCCCCCC/C=C\CCCCCCCC(=O)OCC(COC(=O)CCCCCCC/C=C\CCCCCCCC)OC(=O)CCCCCCC/C=C\CCCCCCCC + CCCCCCCC
viscosity [mPa·s], 101.33 kPa
Details | x1 = 0.000908 | x1 = 0.001916 | x1 = 0.004907 | x1 = 0.0101 | x1 = 0.02609 | x1 = 0.03555 | x1 = 0.05997 | x1 = 0.08297
293.15 K | 0.5531 | 0.5668 | 0.6068 | 0.6753 | 0.9348 | 1.11 | 1.638 | 2.268
298.15 K | 0.5204 | 0.5329 | 0.5699 | 0.6331 | 0.8701 | 1.03 | 1.505 | 2.064
303.15 K | 0.4903 | 0.502 | 0.536 | 0.5947 | 0.8126 | 0.9579 | 1.388 | 1.894
308.15 K | 0.4628 | 0.4737 | 0.5055 | 0.5596 | 0.7605 | 0.8936 | 1.284 | 1.741
313.15 K | 0.4377 | 0.4478 | 0.4774 | 0.5277 | 0.7134 | 0.8357 | 1.191 | 1.606

CCCCCCCCC + CCCCCCCC
298.15 K, 101.33 kPa
Details | viscosity [mPa·s]
x2 = 0.1092 | 0.631
x2 = 0.2071 | 0.6264
x2 = 0.3038 | 0.6069
x2 = 0.4058 | 0.5951
x2 = 0.5051 | 0.5768
x2 = 0.6076 | 0.5586
x2 = 0.7044 | 0.5497
x2 = 0.8047 | 0.5318
x2 = 0.9025 | 0.5116

CCCCCCCCC + CCCCCCCCCC
298.15 K, 101.33 kPa
Details | viscosity [mPa·s]
x1 = 0.1051 | 0.8387
x1 = 0.2082 | 0.8061
x1 = 0.3045 | 0.7835
x1 = 0.4048 | 0.7761
x1 = 0.5057 | 0.7535
x1 = 0.6085 | 0.7344
x1 = 0.7065 | 0.7185
x1 = 0.806 | 0.6913
x1 = 0.897 | 0.6734
